Test results from PMC7182039 (Journal of medicinal chemistry, 2020).

Key:
[1] = In vitro metabolic stability in mouse liver microsomes; assay type: in vitro ADME; settings: for m CLint: 37 °C, 0.4 mg/mL protein, NADPH
[2] = In vitro metabolic stability in human liver microsomes; assay type: in vitro ADME; settings: for h CLint: 37 °C, 0.4 mg/mL protein, NADPH
[3] = Kinetic solubility by nephelometry; assay type: physicochemical; settings: kinetic solubility, 1% DMSO, 30 min; for sol2.0: 0.01 M HCl (approx. pH 2.0); for sol6.5: pH 6.5 phosphate buffer

SMILES | m CLint [1] | h CLint [2] | sol2.0 [3] | sol6.5 [3] | conversion to 2 in mouse liver microsomes [1] | conversion to 2 in human liver microsomes [2]
O=C(O)c1cccc([C@H]2CC[C@]3(CC2)OOC2(O3)C3CC4CC(C3)CC2C4)c1 (stereo partly drawn) [Compound 4] | 30 μL/(min mg) protein | 12 μL/(min mg) protein | <1.6/<1.6 μg/mL | <1.6/<1.6 μg/mL |  | 
CC(=O)NC1C2CC3CC1CC(C2)C31OO[C@]2(CC[C@@H](c3ccc(OCC(=O)O)cc3)CC2)O1 (stereo partly drawn) [Compound 22, cis-6-Acetamidoadamantane-2-spiro-3′−8′-[4-(carboxymethoxy)phenyl]-1′,2′,4′-trioxaspiro[4.5]decane] | < 7 μL/(min mg) protein | 10 μL/(min mg) protein | 3.1 to 6.3 µg/mL | 12.5 to 25 µg/mL |  | 
O=C(O)CCCOc1ccc([C@H]2CC[C@]3(CC2)OOC2(O3)C3CC4CC(C3)CC2C4)cc1 (stereo partly drawn) [Compound 9, cis-Adamantane-2-spiro-3′−8′-[4-(carboxypropoxy)-phenyl]-1′,2′,4′-trioxaspiro[4.5]decane] | 8 μL/(min mg) protein | < 7 μL/(min mg) protein |  |  |  | 
O=C(O)c1cc([C@H]2CC[C@]3(CC2)OOC2(O3)C3CC4CC(C3)CC2C4)ccc1O (stereo partly drawn) [Compound 5, 5-(Dispiro[adamantane-2,3′ -[1,2,4]trioxolane-5′,1″-cyclohexan]-4″-yl)-2-hydroxybenzoic acid] | 20 μL/(min mg) protein | 108 μL/(min mg) protein |  |  |  | 
CS(=O)(=O)NC(=O)COc1ccc([C@H]2CC[C@]3(CC2)OOC2(O3)C3CC4CC(C3)CC2C4)cc1 (stereo partly drawn) [Compound 13, cis-Adamantane-2-spiro-3′−8′-[4-[2-[methylsulfonamino]-2-oxoethoxy]phenyl]-1′,2′,4′-trioxaspiro[4.5]decane] | 12 μL/(min mg) protein | < 7 μL/(min mg) protein |  | 6.3 to 12.5 µg/mL |  | 
CS(=O)(=O)O.O=C(O)C1CN(Cc2ccc([C@H]3CC[C@]4(CC3)OOC3(O4)C4CC5CC(C4)CC3C5)cc2)C1 (stereo partly drawn) [Compound 18, cis-Adamantane-2-spiro-3′−8′-[4-((3-(carbonyi)azetidin-1-yl)-methyi)phenyi]-1′,2′,4′-trioxaspiro[4.5]decane mesyiate] | 10 μL/(min mg) protein | 7 μL/(min mg) protein | 6.3 to 12.5 µg/mL | < 1.6 µg/mL |  | 
CS(=O)(=O)O.O=C(O)COc1ccc([C@H]2CC[C@]3(CC2)OOC2(O3)C3CC4CC2CC(C3)N4)cc1 (stereo partly drawn) [Compound 24, cis-6-Azaadamantane-2-spiro-3′−8 ′-[4-(carboxymethoxy)-phenyl]-1′,2′,4′-trioxaspiro[4.5]decane mesylate] | 27 μL/(min mg) protein | 35 μL/(min mg) protein | 3.1 to 6.3 µg/mL | < 1.6 µg/mL |  | 
O=C(O)COc1c(Cl)cc([C@H]2CC[C@]3(CC2)OOC2(O3)C3CC4CC(C3)CC2C4)cc1Cl (stereo partly drawn) [Compound 8, cis-Adamantane-2-spiro-3′ −8′-[3,5-dichloro-4-(carboxymethoxy)phenyl]-1′,2′,4′-trioxaspiro[4.5]decan] |  |  |  | 3.1 to 6.3 µg/mL |  | 
O=C(O)COc1ccc([C@H]2CC[C@]3(CC2)OOC2(O3)C3CC4CC2CC(C3)C4=O)cc1 (stereo partly drawn) [Compound 20, cis-6-Oxoadamantane-2-spiro-3′−8′-[4-(carboxymethoxy)-phenyl]-1′,2′,4′-trioxaspiro[4.5]decane] |  |  |  | 50 to 100 µg/mL |  | 
O=C(O)COc1ccc([C@H]2CC[C@]3(CC2)OOC2(O3)C3CC4CC(C3)CC2C4)cc1C(=O)O (stereo partly drawn) [Compound 6, cis-Adamantane-2-spiro-3′−8′-[3-carboxy-4-(carboxymethoxy)-phenyl]-1′,2′,4′-trioxaspiro[4.5]decane] | 8 μL/(min mg) protein | < 7 μL/(min mg) protein |  |  |  | 
O=C([O-])C1CCN(CCOc2ccc([C@H]3CC[C@]4(CC3)OOC3(O4)C4CC5CC(C4)CC3C5)cc2)CC1.[Na+] (stereo partly drawn) [Compound 15] | 9 μL/(min mg) protein | < 7 μL/(min mg) protein | 3.1 to 6.3 µg/mL | < 1.6 µg/mL |  | 
O=C(O)COc1ccc([C@H]2CC[C@]3(CC2)OOC2(O3)C3CC4CC2CC(C3)C4(F)F)cc1 (stereo partly drawn) [Compound 19, cis-6,6-Difluoroadamantane-2-spiro-3′−8′-[4-(carboxymethoxy)-phenyl]-1′,2′,4′ -trioxaspiro[4.5]decane] | 130 μL/(min mg) protein | 23 μL/(min mg) protein |  | 12.5 to 25 µg/mL |  | 
CCOC(=O)COc1ccc([C@H]2CC[C@]3(CC2)OOC2(O3)C3CC4CC(C3)CC2C4)cc1 (stereo partly drawn) [Compound 12] |  |  |  |  | rapidly converted to 2 | rapidly converted to 2
O=C(O)COc1ccc([C@H]2CC[C@]3(CC2)OOC2(O3)C3CC4CC2CC(C3)C4O)cc1 (stereo partly drawn) [Compound 21, cis-6-Hydroxyadamantane-2-spiro-3′−8′-[4-(carboxymethoxy)-phenyl]-1′,2′,4′-trioxaspiro[4.5]decane] | <7/<7 μL/(min mg) protein | <7/<7 μL/(min mg) protein |  | 25 to 50 µg/mL |  | 
CS(=O)(=O)O.NC1C2CC3CC1CC(C2)C31OO[C@]2(CC[C@@H](c3ccc(OCC(=O)O)cc3)CC2)O1 (stereo partly drawn) [Compound 23, cis-6-Aminoadamantane-2-spiro-3′−8′-[4-(carboxymethoxy)-phenyl]-1′,2′,4′-trioxaspiro[4.5]decane mesylate] | 8 μL/(min mg) protein | 13 μL/(min mg) protein | 6.3 to 12.5 µg/mL | < 1.6 µg/mL |  | 
CC(C)(Oc1ccc([C@H]2CC[C@]3(CC2)OOC2(O3)C3CC4CC(C3)CC2C4)cc1)C(=O)O (stereo partly drawn) [Compound 11] | <7/7 μL/(min mg) protein | <7/7 μL/(min mg) protein |  | 3.1 to 6.3 µg/mL |  | 
CS(=O)(=O)O.CS(=O)(=O)O.O=C(O)CNCc1ccc([C@H]2CC[C@]3(CC2)OOC2(O3)C3CC4CC2CC(C3)N4)cc1 (stereo partly drawn) [Compound 25, cis-6-Azaadamantane-2-spiro-3′−8′-[4-[[(carboxymethyl)-amino]methyl]phenyl]-1′,2′,4′-trioxaspiro[4.5]decane mesylate] | <7/<7 μL/(min mg) protein | <7/<7 μL/(min mg) protein | > 100 µg/mL | 50 to 100 µg/mL |  | 
O=C(O)CCCCOc1ccc([C@H]2CC[C@]3(CC2)OOC2(O3)C3CC4CC(C3)CC2C4)cc1 (stereo partly drawn) [Compound 10, cis-Adamantane-2-spiro-3′−8′-[4-(carboxybutoxy)phenyl]-1′,2′,4′-trioxaspiro[4.5]decan] | 13 μL/(min mg) protein | < 7 μL/(min mg) protein | <1.6/<1.6 μg/mL | <1.6/<1.6 μg/mL |  | 
